According to paper PMC8621605, “Cascade Transformations of 1-R-Ethynyl-9,10-anthraquinones with Amidines: Expanding Access to Isoaporphinoid Alkaloids” (Molecules, 2021):
Several values for one entry are separate records, joined by “and”; a condition that tells them apart may be missing. Equal entries are not always repeated. Where two headings read alike, the source gives them in different places.

Assays:
[1] = system: Histamine-Induced Inflammation; assay: Histamine-induced mouse paw edema model; format: in vivo, outbred albino male mice; details: for anti-inflammatory effect (in words) / inhibition in vivo at 20 mg/kg: 20 mg/kg i.p.; for inhibition in vivo at 20 mg/kg: Mus musculus, ip, anti-inflammatory activity relative to control group, read-out: Histamine-Induced Inflammation AIA, %; for Histamine-Induced Inflammation IEI, %: inflammatory edema index, 20 mg/kg i.p. 1 h before histamine, mean ± SEM
Source text: (§1) The anti-inflammatory activity of the synthesized compounds was investigated in vivo in comparison with indomethacin on two models of local inflammation induced by histamine or concanavalin A injection. The last one was used as the inductor of allergic-like inflammation, owing to its immunogenic activity. The results were expressed as values of inflammatory edema indexes (IEI) and percentages of anti-inflammatory activity (AIA) relative to the control group (Table 1).
(§2) The pharmacological studies were carried out on outbred albino male mice and C57BL/6 female mice weighing 20–25 g with eight animals in each group. The anti-inflammatory activity of compounds 2–3 was evaluated in the histamine-induced and concanavalin A-induced mouse paw edema models. The test compounds were dissolved in saline containing 0.5% Tween 80 just before intraperitoneal administration at the dose of 20 mg/kg. The reference agent indomethacin (‘Fluka BioChemica’) was administered by the same method and dose. The control group of animals received an equivalent volume of water–Tween mixture.
The 8 outbred male albino mice were subplantar injected into the hind paw with 0.05 mL 0.01% histamine (“Sigma Aldrich”, Saint Louis, MO, USA) in water solution. The tested compounds were administered 1 h before the histamine injection. The animals were sacrificed by cervical dislocation 5 h after the phlogogen injection.
(§3) Both hind paws were cut off at the ankle joint and weighed. The ratio of the difference in weight between the treated and untreated hind paws to the weight of the untreated hind paw was used as an inflammatory edema index (IEI). The relative percentage of IEI versus control IEI (100%) was calculated for each test group. The anti-inflammatory activity (AIA) was presented as a difference between 100% in the control group and relative percentage of IEI in the test group.

HeLa = assay: MTT cytotoxicity assay, cervical cancer; format: cell-based; details: for IC50: 72 h, MTT, read-out: IC50 ± SEM, HeLa; for cytotoxicity lower than doxorubicin: ratio of IC50
Method: (§4) Cell lines were obtained from the American Type Culture Collection: U-87 MG (ATCC number HBT-14), MCF7 (ATCC number HTB-22), A549 (ATCC number CRM-CCL), HeLa (ATCC number CCL-2). Immortalized human fibroblasts hTERT (as noncancerous control) were obtained from ICG SB RAS (Novosibirsk, Russia). DMEM with 10% fetal bovine serum (Gibco, Amarillo, TX, USA) was used for culturing. Optical density was measured on a Multiskan RC spectrophotometer (LabSystems, Vantaa, Finland). The MTT test was carried out according to the standard procedure using the reagent 3-(4,5-dimethylthiazol-2-yl)-2,5-diphen-yltetrazolium bromide (MTT, Sigma). Cells were seeded in 96 well plates at 5000 cells/well and incubated for 24 h at 37 C in 5% CO2. After 24 h, various concentrations of test compounds ([…]) in DMSO were added and the cells were incubated for an additional 72 h. The viability for DMSO (negative control) was calculated as 100%. All culture experiments were carried out independently three times with two repeats in the experiment, and the final result is presented as concentration, which causes 50% inhibition of cell population growth (IC50 ± SEM).

MCF7 = assay: MTT cytotoxicity assay, breast cancer; format: cell-based, human; details: for IC50: Homo sapiens, MCF7, 72 h, read-out: IC50 ± SEM, MCF7
Method: (§5) The cytotoxicity study of the quinolinones 2–3 was evaluated in vitro by MTT assay on immortalized humane fibroblasts (hTERT), humane breast cancer cell line (MCF7) and humane glioblastoma cell line (U-87MG and) versus doxorubicin as a reference compound.
as §4

[2] = system: Concanavalin A-Induced Inflammation; assay: Concanavalin A-induced mouse paw edema model; format: in vivo, C57BL/6 female mice; details: for anti-inflammatory effect (in words): 20 mg/kg i.p.; for inhibition in vivo at 20 mg/kg: Mus musculus, ip, anti-inflammatory activity relative to control group, read-out: Concanavalin A-Induced Inflammation AIA, %; for inhibition in vivo at 20 mg/kg / Concanavalin A-Induced Inflammation IEI, %: 20 mg/kg i.p. twice; for Concanavalin A-Induced Inflammation IEI, %: inflammatory edema index, 24 h and 1 h before phlogogen, mean ± SEM; for activity higher than that of indomethacin (reference drug): 20 mg/kg double i.p. administration
Source text: as §1, §2
The 8 female mice C57Bl/6 were subplantar injected into the hind paw with 0.02 mL 0.5% concanavaline A (“Sigma Aldrich”) aqueous solution. The test compounds were administered twice 24 h and 1 h before phlogogen. The animals were sacrificed by cervical dislocation 1 h after the phlogogen injection.
as §3

hTERT = assay: MTT cytotoxicity assay, immortalized fibroblasts; format: cell-based, human; details: for IC50: Homo sapiens, Fibroblast, 72 h, read-out: IC50 ± SEM, hTERT
Method: as §5, §4

A549 = assay: MTT cytotoxicity assay, A549; format: cell-based; details: Homo sapiens, 72 h, read-out: IC50 ± SEM, A549
Method: as §4

U-87 MG = assay: MTT cytotoxicity assay, glioblastoma; format: cell-based, human; details: for IC50: Homo sapiens, U-87 MG, 72 h, read-out: IC50 ± SEM, U-87 MG
Method: as §5, §4

Row | melting point [°C] | SMILES | anti-inflammatory effect (in words) [1] | inhibition in vivo at 20 mg/kg [1] [%] | Histamine-Induced Inflammation IEI, % [1] [%] | IC50 (HeLa; Homo sapiens, HeLa) [µM] | IC50 (MCF7) [µM] | anti-inflammatory effect (in words) [2] | inhibition in vivo at 20 mg/kg [2] [%] | Concanavalin A-Induced Inflammation IEI, % [2] [%] | IC50 (hTERT) [µM] | IC50 (A549) [µM] | IC50 (U-87 MG) [µM] | cytotoxicity lower than doxorubicin (HeLa; HeLa) [times] | activity higher than that of indomethacin (reference drug) [2] | cytotoxic effect on immortal fibroblasts (in words) (hTERT) | antitumor effect on breast cancer cell culture (in words) (MCF7) | antitumor effect on multiform glioblastoma cell culture (in words) (U-87 MG) | IC50 (HeLa) [µM]
1 | 312 to 313 | CC(=O)c1ccc(C(=O)c2c(-c3ccccc3)nc3c4c(cccc24)C(=O)c2ccccc2-3)cc1 [2b, 2-benzo-3-(p-acetylbenzoyl)-7H-dibenzo[de,h]quinolin-7-one] | most potent effects | 33 | 23.0 ± 1.9 | > 100 | > 100 | most potent effects | 43 | 21.4 ± 1.6 | > 100 | > 100 | > 100 | – | – | – | – | – | –
2 | 279 to 280 | COc1ccc(C(=O)c2c(-c3ccccc3)nc3c4c(cccc24)C(=O)c2ccccc2-3)cc1 [2d, 2-benzo-3-(p-methoxybenzoyl)-7H-dibenzo[de,h]quinolin-7-one] | most potent effects | 34 | 22.7 ± 2.3 | > 100 | > 100 | most potent effects | 26 | 27.9 ± 1.2 | > 100 | > 100 | > 100 | – | – | – | – | – | –
3 | 324 to 325 | CC(=O)c1ccc(-c2cc3cccc4c3c(n2)-c2ccccc2C4=O)cc1 [3b, 2-(p-acetylphenyl)-7H-dibenzo[de,h]quinolin-7one] | most potent effects | 36 | 22.1 ± 1.8 | > 100 | > 100 | most potent effects | 52 | 18.0 ± 2.0 | > 100 | > 100 | > 100 | – | – | – | – | – | –
4 | 295 to 296 | O=C1c2ccccc2-c2nc(-c3ccc([N+](=O)[O-])cc3)cc3cccc1c23 [3c, 2-(p-nitrophenyl)-7H-dibenzo[de,h]quinolin-7-one] | – | – | – | – | – | – | – | – | – | – | – | – | – | – | – | – | –
5 | 203 to 204 | COc1ccc(-c2cc3cccc4c3c(n2)-c2ccccc2C4=O)cc1 [3d, 2-(p-methoxyphenyl)-7H-dibenzo[de,h]quinolin-7-one] | – | 42 | 19.9 ± 2.6 | > 100 | > 100 | – | 60 | 15.2 ± 1.6 | > 100 | > 100 | > 100 | – | 1.5 times and 1.3–1.4 times | – | – | – | –
6 | – | CCCCCc1cc2cccc3c2c(n1)-c1ccccc1C3=O [3h] | – | 30 | 23.9 ± 1.7 | > 100 | > 100 | – | 48 | 19.7 ± 2.3 | > 100 | > 100 | > 100 | – | 1.3–1.4 times | – | – | – | –
7 | – | CN(C)c1ccc(-c2cc3cccc4c3c(n2)-c2ccccc2C4=O)cc1 [3i] | most potent effects | 34 | 22.6 ± 2.3 | > 100 | > 100 | most potent effects | 51 | 18.5 ± 1.6 | > 100 | > 100 | > 100 | – | 1.3–1.4 times | – | – | – | –
8 | – | CC(C)(O)c1cc2cccc3c2c(n1)-c1ccccc1C3=O [3j] | – | 16 | 28.9 ± 2.0 | 21.3 ± 5.9 | 92.9 ± 7.2 | – | 41 | 22.1 ± 2.5 | > 100 | > 100 | 50.1 ± 5.9 | 3.5 | – | did not have a cytotoxic effect | weak antitumor effect | weak antitumor effect | –
9 | – | Cc1c(-c2cc3cccc4c3c(n2)-c2ccccc2C4=O)cnn1C [3k] | – | 34 | 22.7 ± 1.7 | 21.3 | > 100 | – | 18 | 31.1 ± 2.4 | > 100 | > 100 | > 100 | 3.5 | – | did not have a cytotoxic effect | – | – | 22.7 ± 7.3
10 | 232.5 to 233.5 | COc1ccc(C(=O)c2c(C)nc3c4c(cccc24)C(=O)c2ccccc2-3)cc1 [4d, 2-methyl-3-(p-methoxybenzoyl)-7H-dibenzo[de,h]quinolin-7-one] | – | – | – | – | – | – | – | – | – | – | – | – | – | – | – | – | –
11 | – | COc1cccc2c1C(=O)c1c(O)c3c(c(O)c1C2=O)C[C@@](O)(C(=O)CO)C[C@@H]3O[C@H]1C[C@H](N)[C@H](O)[C@H](C)O1 [Doxorubicin, doxorubicin, reference compound] | – | – | – | 6 ± 1 | 3.6 ± 0.4 | – | – | – | 4.1 ± 1 | 4.05 ± 0.9 | 2.3 ± 0.6 | – | – | – | – | – | –
12 | – | COc1ccc2c(c1)c(CC(=O)O)c(C)n2C(=O)c1ccc(Cl)cc1 [Indomethacin, indomethacin, reference compound] | – | 48 | 17.8 ± 2.7 | – | – | – | 38 | 23.4 ± 2.2 | – | – | – | – | – | – | – | – | –

Row | SMILES | melting point [°C] | anti-inflammatory effect (in words) [1] | inhibition in vivo at 20 mg/kg [1] [%] | Histamine-Induced Inflammation IEI, % [1] [%] | IC50 (HeLa; Homo sapiens, HeLa) [µM] | IC50 (MCF7) [µM] | anti-inflammatory effect (in words) [2] | inhibition in vivo at 20 mg/kg [2] [%] | Concanavalin A-Induced Inflammation IEI, % [2] [%] | IC50 (hTERT) [µM] | IC50 (A549) [µM] | IC50 (U-87 MG) [µM] | cytotoxicity lower than doxorubicin (HeLa; HeLa) [times] | activity higher than that of indomethacin (reference drug) [2] | cytotoxic effect on immortal fibroblasts (in words) (hTERT) | antitumor effect on breast cancer cell culture (in words) (MCF7) | antitumor effect on multiform glioblastoma cell culture (in words) (U-87 MG) | IC50 (HeLa) [µM]
13 | O=C1c2ccccc2-c2nc(-c3ccccc3)cc3cccc1c23 [3a, 2-phenyl-7H-dibenzo[de,h]quinolin-7-one] | 207 to 208 | most potent effect | 60 | 13.9 ± 0.8 | 86.3 ± 12.9 | > 100 | – | 53 | 17.8 ± 1.8 | > 100 | > 100 | > 100 | 14 | 1.3–1.4 times | did not have a cytotoxic effect | – | – | –
